Measured values published in ChEMBL document CHEMBL4304832, “Novel Pyrazole-Containing Compounds Active against Mycobacterium tuberculosis” (ACS Med Chem Lett, 2019).

Test system: Mycobacterium tuberculosis
Assay: Antitubercular activity against Mycobacterium tuberculosis H37Rv infected in C57BL/6 mouse assessed as reduction in bacterial load in lungs at 30 mg/kg administered once daily starting from 5 days post infection for 4 consecutive days and measured on day 9
Format: functional

For `COc1c(N2C[C@@H]3CCCN[C@@H]3C2)c(F)cc2c(=O)c(C(=O)O)cn(C3CC3)c12` [MOXIFLOXACIN], which Activity is on record?
Its Activity is 3.5 log10CFU.
